Data published in article PMC10673308, “Unusual Oligomeric Laccase-like Oxidases from Ascomycete Curvularia geniculata VKM F-3561 Polymerizing Phenylpropanoids and Phenolic Compounds under Neutral Environmental Conditions” (Microorganisms, 2023).

Tests used:
[1] = test system: T1, oxidase I (laccase-like oxidase I of C. geniculata VKM F-3561); test: spectrophotometric oxidation assay; assay type: biochemical, Curvularia geniculata; settings: apparent, error < 10%
T1 construct: native, purified from culture liquid; glycosylated oligomer about 1035 kDa, subunit about 63 kDa deglycosylated
Source text: spectrophotometric oxidation assay on oxidase I (laccase-like oxidase I of C. geniculata VKM F-3561)

[2] = test system: T2, oxidase II (laccase-like oxidase II of C. geniculata VKM F-3561); test: spectrophotometric oxidation assay; assay type: biochemical, Curvularia geniculata; settings: apparent, error < 10%
T2 construct: native, purified from culture liquid; glycosylated oligomer about 870 kDa, subunit about 63 kDa deglycosylated
Source text: spectrophotometric oxidation assay on oxidase II (laccase-like oxidase II of C. geniculata VKM F-3561)

| SMILES | Km ([1]; 50 mM Tris-HCl buffer pH 7.2) [µM] | Km ([2]; 50 mM Tris-HCl buffer pH 7.2) [µM] | Km ([1]; 20 mM Na-acetate buffer pH 5.0) [µM] | Km ([2]; 20 mM Na-acetate buffer pH 5.0) [µM] |
| --- | --- | --- | --- | --- |
| COc1cc(/C=C/CO)ccc1O [coniferyl alcohol] | 130 | 125 |  |  |
| COc1cccc(OC)c1O [2,6-dimethoxyphenol] | 26 | 108 |  |  |
| COc1cc(/C=C/C(=O)O)ccc1O [ferulic acid] | 37.6 | 51 |  |  |
| COc1cc(C=NN=Cc2cc(OC)c(O)c(OC)c2)cc(OC)c1O [syringaldazine, 4-hydroxy-3,5-dimethoxybenzaldehyde azine] | 2.3 | 46 |  |  |
| CCn1c(=NN=c2sc3cc(S(=O)(=O)O)ccc3n2CC)sc2cc(S(=O)(=O)O)ccc21 [ABTS, 2,2′-azino-bis(3-ethylbenzothiazoline 6-sulfonic acid)] |  |  | 280 | 152 |
